What follows are molecules tested against PIK3CD (Human) (UniProt O00329) (assay: Assessment of PIK3CD Kinase Activity).
Chain of PIK3CD (Human) (O00329 whole entry, looked up): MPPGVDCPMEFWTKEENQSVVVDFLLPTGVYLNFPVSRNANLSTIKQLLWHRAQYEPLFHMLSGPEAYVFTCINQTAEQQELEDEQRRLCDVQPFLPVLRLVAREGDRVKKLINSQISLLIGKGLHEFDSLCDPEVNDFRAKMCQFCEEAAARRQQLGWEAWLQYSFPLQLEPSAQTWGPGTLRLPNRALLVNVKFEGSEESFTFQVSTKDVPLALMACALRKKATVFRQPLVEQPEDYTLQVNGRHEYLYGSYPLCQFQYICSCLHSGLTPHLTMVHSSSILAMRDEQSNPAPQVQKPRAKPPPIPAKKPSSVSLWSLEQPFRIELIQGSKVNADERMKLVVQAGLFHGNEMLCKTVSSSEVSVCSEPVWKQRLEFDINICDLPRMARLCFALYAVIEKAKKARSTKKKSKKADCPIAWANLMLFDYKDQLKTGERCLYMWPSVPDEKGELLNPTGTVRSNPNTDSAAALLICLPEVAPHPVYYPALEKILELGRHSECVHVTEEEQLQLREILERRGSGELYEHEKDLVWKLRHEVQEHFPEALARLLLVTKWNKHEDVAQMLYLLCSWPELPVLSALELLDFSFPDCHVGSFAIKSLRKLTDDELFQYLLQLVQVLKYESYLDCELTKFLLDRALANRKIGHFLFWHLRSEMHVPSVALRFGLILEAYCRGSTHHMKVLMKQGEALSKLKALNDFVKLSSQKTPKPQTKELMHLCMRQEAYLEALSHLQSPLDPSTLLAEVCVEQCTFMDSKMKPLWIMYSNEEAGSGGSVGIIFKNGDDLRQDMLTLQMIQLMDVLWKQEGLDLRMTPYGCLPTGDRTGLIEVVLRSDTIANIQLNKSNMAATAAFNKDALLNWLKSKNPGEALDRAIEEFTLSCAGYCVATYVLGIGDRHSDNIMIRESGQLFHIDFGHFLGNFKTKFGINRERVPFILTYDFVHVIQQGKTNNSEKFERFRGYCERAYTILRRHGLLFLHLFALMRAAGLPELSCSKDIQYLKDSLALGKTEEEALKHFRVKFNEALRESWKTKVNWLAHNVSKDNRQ

Row | IC50 | SMILES
1 | ≤ 100 nM | COCCN(C)C(=O)C1CCN(Cc2cc3nc(-c4cccc5[nH]ncc45)nc(N4CCOCC4)c3s2)CC1
2 | ≤ 100 nM | c1cc(-c2nc(N3CCOCC3)c3sc(CN4CCN(Cc5ncc[nH]5)CC4)cc3n2)c2cn[nH]c2c1
3 | ≤ 100 nM | c1cc(-c2nc(N3CCOCC3)c3sc(CN4CCN(Cc5cscn5)CC4)cc3n2)c2cn[nH]c2c1
4 | ≤ 100 nM | CN(C)C(=O)CN1CCN(Cc2cc3nc(-c4cccc5[nH]ccc45)nc(N4CCOCC4)c3s2)CC1
5 | ≤ 100 nM | COCCN(C)C1CCN(Cc2cc3nc(-c4cccc5[nH]ccc45)nc(N4CCOCC4)c3s2)CC1
6 | ≤ 100 nM | O=C(N1CCOCC1)N1CCN(Cc2cc3nc(-c4cccc5[nH]ccc45)nc(N4CCOCC4)c3s2)CC1
7 | ≤ 100 nM | COCC(=O)N(C)C1CCN(Cc2cc3nc(-c4cccc5[nH]ncc45)nc(N4CCOCC4)c3s2)CC1
8 | ≤ 100 nM | COCCN(C)C(=O)N1CCN(Cc2cc3nc(-c4cccc5[nH]ccc45)nc(N4CCOCC4)c3s2)CC1
9 | ≤ 100 nM | c1cc(-c2nc(N3CCOCC3)c3sc(CN4CCN(Cc5cnc[nH]5)CC4)cc3n2)c2cn[nH]c2c1
10 | ≤ 100 nM | CNC(=O)[C@@H]1CCCN(Cc2cc3nc(-c4cccc5[nH]ncc45)nc(N4CCOCC4)c3s2)C1
11 | ≤ 100 nM | COCC1CCCN(Cc2cc3nc(-c4cccc5[nH]ncc45)nc(N4CCOCC4)c3s2)C1 (stereo not drawn)
12 | ≤ 100 nM | CNC(=O)C1CCN(Cc2cc3nc(-c4cccc5[nH]ncc45)nc(N4CCOCC4)c3s2)CC1
13 | ≤ 100 nM | CC(C)(C(=O)N1CCCC1)N1CCN(Cc2cc3nc(-c4cccc5[nH]ncc45)nc(N4CCOCC4)c3s2)CC1
